In patent US5789542A, “Amphipathic peptides” (Board of Supervisors of Louisiana State University and …, priority 1997, dated 1998):
Where a SMILES comes first, the peptide text is derived from it.

Legend:
Type in all cases: cell-based
[1] = system: murine cell line 3T3; assay: Sublethal concentration, Tryptan blue staining, 3T3 cells; conditions: healthy Swiss mouse fibroblast cells, thirty minutes at 37° C., highest concentration with at least one nucleus not stained
Description: (§1) Also shown in Table 1 are sublethal concentrations for some of the peptides against the murine cell lines 3T3 and 3T12. Dilutions of peptide were prepared over a range of concentrations. Equal volumes of peptide solution and 250-750 murine cells were mixed together. The cells were incubated for thirty minutes at 37° C. 50 μL of Tryptan blue stain were then added to each well. Under light microscopy, killed cells could be visualized by the fact that their nuclei were stained. The sublethal dose was the highest concentration for which at least one cell nucleus was not stained. (Blank entries in Table 1 correspond to assays that had not been completed as of the date this application is being filed. Values for those entries will be determined in future assays performed in the same manner.)
(§2) P. aeruginosa and E. coli are Gram-negative bacteria, while S. aureus is a Gram-positive bacterium. 3T3 cells are healthy Swiss mouse fibroblast cells, and 3T12 cells are transformed, immortalized mouse fibroblast cells. Thus the novel peptides (at the proper concentrations) have activity against both Gram-negative and Gram-positive bacteria, while not showing activity against mammalian cells. This combination of properties is itself rather unusual in a lytic peptide.

[2] = system: murine cell line 3T12; assay: Sublethal concentration, Tryptan blue staining, 3T12 cells; conditions: transformed, immortalized mouse fibroblast cells, thirty minutes at 37° C., highest concentration with at least one nucleus not stained
Description: as §1, §2

[3] = system: Pseudomonas aeruginosa ATCC 27853; assay: Minimum inhibitory concentration by broth microdilution, P. aeruginosa; conditions: 5×10^4 cells, incubated overnight
Description: (§3) Minimum inhibitory concentrations of several of the peptides were measured against E. coli ATCC 25922, Pseudomonas aeruginosa ATCC 27853, and Staphylococcus aureus ATCC 25723. Minimum inhibitory concentrations were obtained by the broth microdilution method. Peptide solutions were prepared over a range of concentrations from 2 μg/mL to 256 μg/mL. 5×10^4 cells were added to the peptide solutions in sterile wells and incubated overnight. Wells in which the organisms grew became turbid. The minimum inhibitory concentration was the lowest concentration that inhibited growth of the organism.
as §2

[4] = system: E. coli ATCC 25922; assay: Minimum inhibitory concentration by broth microdilution, E. coli; conditions: 5×10^4 cells, incubated overnight
Description: as §3, §2

[5] = system: Staphylococcus aureus ATCC 25723; assay: Minimum inhibitory concentration by broth microdilution, S. aureus; conditions: 5×10^4 cells, incubated overnight
Description: as §3, §2

[6] = system: mammalian cell; assay: Mammalian cell permeation to an exterior fluorescent dye; conditions: ratio to antibacterial concentration

Molecule: COC(=O)[C@H](C)NC(=O)[C@H](CC(C)C)NC(=O)[C@H](CCCCN)NC(=O)[C@H](CCCCN)NC(=O)[C@H](C)NC(=O)[C@H](CC(C)C)NC(=O)[C@H](CCCCN)NC(=O)[C@H](C)NC(=O)[C@H](CC(C)C)NC(=O)[C@H](CCCCN)NC(=O)[C@H](CCCCN)NC(=O)[C@H](C)NC(=O)[C@H](CC(C)C)NC(=O)[C@@H](N)CCCCN [(KLAKKLA)2] (H-KLAKKLAKLAKKLA-OMe)
- Sublethal Concentration, 3T3 [1]: 394 µM
- Sublethal Concentration, 3T12 [2]: 788 µM

Molecule: CC(C)C[C@H](NC(=O)[C@H](CCCCN)NC(=O)[C@H](C)NC(=O)[C@H](CC(C)C)NC(=O)[C@H](CCCCN)NC(=O)[C@H](CCCCN)NC(=O)[C@H](C)NC(=O)[C@H](CC(C)C)NC(=O)[C@H](CCCCN)NC(=O)[C@H](C)NC(=O)[C@H](CC(C)C)NC(=O)[C@H](CCCCN)NC(=O)[C@H](CCCCN)NC(=O)[C@H](C)NC(=O)[C@H](CC(C)C)NC(=O)[C@H](CCCCN)NC(=O)[C@H](C)NC(=O)[C@H](CC(C)C)NC(=O)[C@@H](N)CCCCN)C(=O)N[C@@H](C)C(=O)N[C@@H](CCCCN)C(N)=O [(KLAKLAK)3]
- Minimum Inhibitory Concentration, P. aeruginosa [3]: 3.7 µM
- Minimum Inhibitory Concentration, E. coli [4]: 3.7 µM
- Minimum Inhibitory Concentration, S. aureus [5]: 3.7 µM

Molecule: COC(=O)[C@H](C)NC(=O)[C@H](CC(C)C)NC(=O)[C@H](CCCCN)NC(=O)[C@H](CCCCN)NC(=O)[C@H](C)NC(=O)[C@H](CC(C)C)NC(=O)[C@H](CCCCN)NC(=O)[C@H](C)NC(=O)[C@H](CC(C)C)NC(=O)[C@H](CCCCN)NC(=O)[C@H](CCCCN)NC(=O)[C@H](C)NC(=O)[C@H](CC(C)C)NC(=O)[C@@H](N)CCCCN [Peptide 14-mer, (KLAKKLA)2 -OCH3] (H-KLAKKLAKLAKKLA-OMe)
- Concentration at which mammalian cell permeation to an exterior fluorescent dye begins, relative to concentrations that effectively inhibited bacterial growth [6]: about 50 times

Molecule: CC[C@H](C)[C@H](NC(=O)CN)C(=O)NCC(=O)N[C@@H](C)C(=O)N[C@H](C(=O)N[C@@H](CC(C)C)C(=O)N[C@@H](CCCCN)C(=O)N[C@H](C(=O)N[C@@H](CC(C)C)C(=O)N[C@H](C(=O)N[C@H](C(=O)NCC(=O)N[C@@H](CC(C)C)C(=O)N1CCC[C@H]1C(=O)N[C@@H](C)C(=O)N[C@@H](CC(C)C)C(=O)N[C@H](C(=O)N[C@@H](CO)C(=O)N[C@@H](Cc1c[nH]c2ccccc12)C(=O)N[C@H](C(=O)N[C@@H](CCCCN)C(=O)N[C@@H](CCCNC(=N)N)C(=O)N[C@@H](CCCCN)C(=O)N[C@@H](CCCNC(=N)N)C(=O)N[C@@H](CCC(N)=O)C(=O)N[C@@H](CCC(N)=O)C(N)=O)[C@@H](C)CC)[C@@H](C)CC)[C@@H](C)O)[C@@H](C)O)C(C)C)C(C)C [melittin, reference compound]
- Minimum Inhibitory Concentration, P. aeruginosa [3]: 2.3 µM
- Sublethal Concentration, 3T3 [1]: 0.78 µM
- Minimum Inhibitory Concentration, E. coli [4]: 0.56 µM
- Sublethal Concentration, 3T12 [2]: 0.78 µM
- Minimum Inhibitory Concentration, S. aureus [5]: 0.56 µM

Molecule: (KALKALK)3
- Minimum Inhibitory Concentration, P. aeruginosa [3]: 3.9 µM
- Minimum Inhibitory Concentration, E. coli [4]: 3.9 µM
- Minimum Inhibitory Concentration, S. aureus [5]: 7.8 µM

Molecule: (KLAKKLA)
- Minimum Inhibitory Concentration, P. aeruginosa [3]: > 100 µM
- Sublethal Concentration, 3T3 [1]: N.L.
- Minimum Inhibitory Concentration, E. coli [4]: > 100 µM
- Sublethal Concentration, 3T12 [2]: N.L.
- Minimum Inhibitory Concentration, S. aureus [5]: > 100 µM

Molecule: (KLAKKLA)3 (KLAKKLAKLAKKLAKLAKKLA)
- Minimum Inhibitory Concentration, P. aeruginosa [3]: 4.2 µM
- Sublethal Concentration, 3T3 [1]: 9 µM
- Minimum Inhibitory Concentration, E. coli [4]: 4.2 µM
- Sublethal Concentration, 3T12 [2]: 17 µM
- Minimum Inhibitory Concentration, S. aureus [5]: 4.2 µM

Molecule: (KLAKKLA)4 (KLAKKLAKLAKKLAKLAKKLAKLAKKLA)
- Minimum Inhibitory Concentration, P. aeruginosa [3]: 9.0 µM
- Sublethal Concentration, 3T3 [1]: 13 µM
- Minimum Inhibitory Concentration, E. coli [4]: 9.0 µM
- Sublethal Concentration, 3T12 [2]: 52 µM
- Minimum Inhibitory Concentration, S. aureus [5]: 9.0 µM

Molecule: (KLAKLAK)
- Minimum Inhibitory Concentration, P. aeruginosa [3]: > 95 µM
- Minimum Inhibitory Concentration, E. coli [4]: > 95 µM
- Minimum Inhibitory Concentration, S. aureus [5]: > 95 µM

Molecule: (KLAKLAK)2 (KLAKLAKKLAKLAK)
- Minimum Inhibitory Concentration, P. aeruginosa [3]: 5.8 µM
- Minimum Inhibitory Concentration, E. coli [4]: 5.8 µM
- Minimum Inhibitory Concentration, S. aureus [5]: 5.8 µM

Molecule: (KLAKLAK)4 (KLAKLAKKLAKLAKKLAKLAKKLAKLAK)
- Minimum Inhibitory Concentration, P. aeruginosa [3]: 9.4 µM
- Minimum Inhibitory Concentration, E. coli [4]: 9.4 µM
- Minimum Inhibitory Concentration, S. aureus [5]: 9.4 µM

Molecule: (KLGKKLG)3 (KLGKKLGKLGKKLGKLGKKLG)
- Minimum Inhibitory Concentration, P. aeruginosa [3]: 3.4 µM
- Sublethal Concentration, 3T3 [1]: 565 µM
- Minimum Inhibitory Concentration, E. coli [4]: 3.4 µM
- Sublethal Concentration, 3T12 [2]: 565 µM
- Minimum Inhibitory Concentration, S. aureus [5]: 3.4 µM

Molecule: cecropin B (KWKVFKKIEKMGRNIRNGIVKAGPAIAVLGEAKAL; UniProt P01508 27-61, looked up) [naturally occurring lytic peptide used for comparison, reference compound]
- Minimum Inhibitory Concentration, P. aeruginosa [3]: 0.20 µM
- Minimum Inhibitory Concentration, E. coli [4]: 0.20 µM
- Minimum Inhibitory Concentration, S. aureus [5]: 1.7 µM

Molecule: magainin 2 (KLGKKLGKLGKKLGKLGKKLG) [naturally occurring lytic peptide used for comparison, reference compound]
- Minimum Inhibitory Concentration, P. aeruginosa [3]: 0.65 µM
- Minimum Inhibitory Concentration, E. coli [4]: 1.3 µM
- Minimum Inhibitory Concentration, S. aureus [5]: 1.3 µM
